Source: ChEMBL document CHEMBL1128867, “Structure-based drug design of nonpeptidic P2 substituents for HIV-1 protease inhibitors” (Bioorg Med Chem Lett, 1995)
pKi: −log10 of the molar value. Values after ≈ are worked out from the molar mass of the structure shown.

Legend:
CCRF-CEM = test: Inhibitory activity against CEM cells; type: functional, cell-based; conditions: Homo sapiens
[1] = biological target: Human immunodeficiency virus type 1 protease (Human immunodeficiency virus 1, UniProt Q72874); test: Inhibitory activity HIV-1 protease enzyme
[2] = Oral availability was tested for plasma levels at a dose of 40 mg/kg, after 6 hr of in fed fisher rats.; type: ADME, organism-based; parameters: dose 40 mg/kg; conditions: Fischer, rat, read-out: Oral availability
[3] = biological target: Human immunodeficiency virus type 1 protease (Human immunodeficiency virus 1) (UniProt Q72874); test: Concentration required for the inhibition against HIV-protease enzyme at a dose of 40 mg/kg in fed fisher rats; type: organism-based; parameters: dose 40 mg/kg

Row | Structure (SMILES) | IC50 (CCRF-CEM) | pKi [1] | bioavailability [2] | IC90 [3]
1 | Cc1c(C(=O)N[C@@H](CSc2ccc3ccccc3c2)[C@H](O)Cc2ccccc2C(=O)NC(C)(C)C)cccc1[N+](=O)[O-] | > 50 µg/mL | 6.27 | – | –
2 | CC(C)(C)NC(=O)c1ccccc1C[C@@H](O)[C@H](CSc1ccc2ccccc2c1)NC(=O)c1cccc(N)c1Cl | 1.5 µg/mL (≈ 2.6 µM) | 7.80 | – | –
3 | CC(C)(C)NC(=O)c1ccccc1C[C@@H](O)[C@H](CSc1ccc2ccccc2c1)NC(=O)c1cccc2ncccc12 | 5.7 µg/mL (≈ 9.87 µM) | 6.95 | – | –
4 | CC(C)(C)NC(=O)c1ccccc1C[C@@H](O)[C@H](CSc1ccc2ccccc2c1)NC(=O)c1ccnc2ccccc12 | 5.6 µg/mL (≈ 9.69 µM) | 6.58 | – | –
5 | CC(C)(C)NC(=O)c1ccccc1C[C@@H](O)[C@H](CSc1ccc2ccccc2c1)NC(=O)c1cccc(N)c1Br | 1.6 µg/mL (≈ 2.58 µM) | 7.48 | – | –
6 | CC(C)(C)NC(=O)c1ccccc1C[C@@H](O)[C@H](CSc1ccc2ccccc2c1)NC(=O)c1cccc2[nH]ccc12 | 6.6 µg/mL (≈ 11.7 µM) | 6.79 | – | –
7 | Cc1ccc(O)cc1C(=O)N[C@@H](CSc1ccc2ccccc2c1)[C@H](O)Cc1ccccc1C(=O)NC(C)(C)C | – | 6.30 | – | –
8 | CC(C)(C)NC(=O)c1ccccc1C[C@@H](O)[C@H](CSc1ccc2ccccc2c1)NC(=O)c1cccc(O)c1Cl | – | 7.82 | – | –
9 | CC(C)(C)NC(=O)c1ccccc1C[C@@H](O)[C@H](CSc1ccc2ccccc2c1)NC(=O)c1cccc2c1CCCN2 | 1.9 µg/mL (≈ 3.27 µM) | 7.62 | – | –
10 | Cc1c(O)cccc1C(=O)N[C@@H](CSc1ccc2ccccc2c1)[C@H](O)Cc1ccccc1C(=O)NC(C)(C)C | 0.97 µg/mL (≈ 1.74 µM) | 8.52 | – | –
11 | Cc1ccc(N)cc1C(=O)N[C@@H](CSc1ccc2ccccc2c1)[C@H](O)Cc1ccccc1C(=O)NC(C)(C)C | 1.3 µg/mL (≈ 2.34 µM) | 7.77 | – | –
12 | Cc1c(N)cc(N)cc1C(=O)N[C@@H](CSc1ccc2ccccc2c1)[C@H](O)Cc1ccccc1C(=O)NC(C)(C)C | 0.46 µg/mL (≈ 0.806 µM) | 8.30 | – | –
13 | CC(C)(C)NC(=O)c1ccccc1C[C@@H](O)[C@H](CSc1ccc2ccccc2c1)NC(=O)c1cccc2c1CCN2 | > 50 µg/mL | 6.78 | – | –
14 | Cc1c(O)cccc1C(=O)N[C@@H](Cc1ccccc1)[C@H](O)CN1C[C@H]2CCCC[C@H]2C[C@H]1C(=O)NC(C)(C)C | 0.01 µg/mL (≈ 0.0187 µM) | 7.68 | 44% | 0.03 µg/mL (≈ 0.056 µM)
15 | CC(C)(C)NC(=O)c1ccccc1C[C@@H](O)[C@H](CSc1ccc2ccccc2c1)NC(=O)c1cccc2c1CCNC2 | > 50 µg/mL | 6.74 | – | –
16 | Cc1c(N)cccc1C(=O)N[C@@H](CSc1ccc2ccccc2c1)[C@H](O)Cc1ccccc1C(=O)NC(C)(C)C | 5 µg/mL (≈ 9 µM) | 7.31 | – | –
17 | CC(C)(C)NC(=O)c1ccccc1C[C@@H](O)[C@H](CSc1ccc2ccccc2c1)NC(=O)c1cccc2cnccc12 | 16 µg/mL (≈ 27.7 µM) | 6.10 | – | –
